Data taken from the METLIN SMRT retention time set (Domingo-Almenara et al. 2019).

Assay: gradient 5% acetonitrile 3 min, to 50% in 2 min, to 85% in 15 min, held 3 min, 100 µL/min
Settings: column: Zorbax Extend-C18 2.1 x 50 mm; eluents: water / acetonitrile, 0.1% formic acid
Procedure, shortened: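 Standards, all pure, were combined into mixtures of ~100 molecules and run at 100 μL/min on a Zorbax Extend-C18 column (2.1 × 50 mm, 1.8 μm) with water and acetonitrile, each containing 0.1% formic acid. A coupled quadrupole time-of-flight mass spectrometer operated in positive and negative ionization mode. Retention time values come from computationally picked adduct peaks, each inspected manually.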

Compound	RP-LC retention time
COc1ccc(N2CCN(c3cc(C)nc4nc(-c5ccc(C)cc5)nn34)CC2)cc1	1010 s
CN[C@H]1CN(c2ccc3c(=O)c(C(=O)O)cn(-c4nccs4)c3n2)C[C@@H]1OC	599 s
Cc1ccc(CC(=O)N2CCC3(CC2)NC(=O)c2ccc(F)cc2N3C)cc1	787 s
COc1ccc(NC(=O)N2CCOc3ccc(C)cc32)cc1OC	827 s
Cc1nnc(C2CC3(CCN(CC(C)C)CC3)CN2Cc2ccccc2)o1 (stereo not drawn)	566 s
COc1ccc(-c2cc(N3CCN(C(=O)c4c(F)cccc4Cl)CC3)ncn2)cc1	612 s
Cc1cccc(C)c1NS(=O)(=O)c1cc2c3c(c1)CCC(=O)N3CCC2	848 s
Cc1cccc(NS(=O)(=O)c2cc(-c3cc(C(F)(F)F)on3)sc2C)c1C	1240 s
O=C1NCCCCCCN(C(=O)c2cccs2)[C@H]2CCCC[C@@H]12	838 s
O=C1CC(c2noc(CN3CCN(c4ccccn4)CC3)n2)CN1c1ccc(F)cc1 (stereo not drawn)	576 s
O=C(Oc1ccc2c(c1)O/C(=C\c1ccncc1)C2=O)c1ccc2c(c1)OCO2	725 s
CN(c1ccc(F)cc1)S(=O)(=O)N1CCCC(C(=O)N2CCN(c3ncccn3)CC2)C1 (stereo not drawn)	864 s
c1cc(-c2noc(-c3cccs3)n2)cc(-c2ccn[nH]2)c1	903 s
O=C(c1cn(-c2cc(N3CCSCC3)ncn2)cn1)N1CC=C(c2ccccc2)CC1	992 s
CC(=O)Nc1ccc(C(=O)N2CCCCCC2)o1	665 s
Cc1noc(-c2ccnc(-n3ncc(C(=O)N4CCCCC4)c3C)c2)n1	841 s
CCc1cccc(NS(=O)(=O)c2cc(-c3[nH]ncc3C(=O)N3CCCCC3)oc2C)c1	819 s
O=S(=O)(Nc1ccc(F)cc1)c1cccnc1Nc1ccc(F)cc1	1060 s
O=C1CC(c2noc(Cc3ccc(F)cc3)n2)CN1c1ccc(F)c(Cl)c1 (stereo not drawn)	1040 s

Compound	RP-LC retention time
Cc1nc2cc(N3CCCC(C(=O)NCCN4CCCCCC4)C3)cnc2nc1C (stereo not drawn)	592 s
CSc1ccc(NS(=O)(=O)c2cc3c(s2)CCN(C(=O)C2CC2)C3)cc1	856 s
O=C(CCc1nnn2c1CN(C(=O)Nc1ccc3c(c1)OCCO3)CC2)N1CCCC1	625 s
CN(C)c1ccc(C(=O)Nc2cnc(N3CCCCC3)nc2)cc1	882 s
O=C(NC1CC(=O)N(C2CC2)C1)c1cc2ccccc2[nH]1 (stereo not drawn)	638 s
O=C(CSc1cc(N2CCCC2)ncn1)NCc1cccs1	601 s
O=C(CCn1nnc2cc(-c3noc(Cc4ccc(Cl)cc4)n3)ccc21)N1CCCC1	921 s
Cc1ccc(C(=O)N2CCc3nc(-c4ccc(F)cc4)ncc3C2)cc1C	901 s
Nc1nc(N2CCC3(CC2)OCCO3)ncc1C(=O)NCc1ccccc1	705 s
CCN1CCN(C(=O)c2c(OCC3CC3)cc(=O)n3c2CCCCC3)CC1	569 s
O=C(NC1CCCC1)c1ccc2ccnc(N3CCN(c4ccc(F)cc4)CC3)c2c1	803 s
CC(C)S(=O)(=O)N1CCC(CCOc2ccccc2)C1 (stereo not drawn)	980 s
CCOc1ccccc1NC(=O)C1CCN(c2cncnc2N2CCCCC2)CC1	742 s
CCNC(=O)N1CCCC1c1nc(C2CCOCC2)no1 (stereo not drawn)	612 s
O=C1CCCCC(C(=O)Nc2ccc3c(c2)OCCO3)N1 (stereo not drawn)	669 s
O=C([C@@H]1C[C@H](Oc2cccnc2)CN1C(=O)c1ccco1)N1CCCC1	553 s
Cc1ccccc1S(=O)(=O)N1CCc2c(c(-c3nnc(-c4ccc(F)cc4)o3)nn2C)C1	955 s
CC(C)c1nnc(-c2sccc2NC(=O)C2CCC2)o1	1230 s

Results, then the compound that gave them:

RP-LC retention time	Compound
1040 s	CC(C)c1noc(-c2cc(=O)n(CC(=O)Nc3ccc(F)c(F)c3)c3ccccc23)n1
886 s	Cc1cccc(CN2C(=O)CN(S(C)(=O)=O)CC2(C)C(=O)NCc2ccc(Cl)cc2)c1 (stereo not drawn)
728 s	COc1ccc(Cl)cc1NC(=O)NCC(c1cccnc1)c1c[nH]c2ccccc12 (stereo not drawn)
823 s	CCCN(CC1CCOC1)C(=O)Nc1ccccc1CC (stereo not drawn)
632 s	CCc1ccc(NC(=O)N2CCN(CCn3c(CC)nc4cccnc43)CC2)cc1
881 s	CCN1c2ccccc2C(=O)NC12CCN(C(=O)NCc1ccccc1)CC2
854 s	CCc1ccccc1NC(=O)Cn1c(=O)c(CCC(=O)NCC(C)C)nc2ccccc21
951 s	CC(=O)c1cccc(NC(=O)Cn2cccc2-c2nc(-c3ccc4c(c3)OCO4)no2)c1
976 s	Cc1ccc2c(c1)N(S(C)(=O)=O)CCC(C(=O)Nc1ccc(OC(C)C)cc1)O2 (stereo not drawn)
754 s	Cc1ccc(CNC(=O)C2(C)Cn3nc(C(=O)NCCC(C)C)cc3C(=O)N2C)cc1 (stereo not drawn)
688 s	COc1ccccc1OCCNC(=O)C1CC(=O)N(c2n[nH]c3cccc(F)c23)C1 (stereo not drawn)
648 s	COC(=O)c1ccc(CSc2nc3ccccc3[nH]2)cc1
792 s	Cc1nc(-c2cnccn2)n(CC(=O)Nc2cccc(Cl)c2)c(=O)c1C
643 s	CCC(C)NC(=O)Cn1cnc2nc(N3CCCC(C(=O)NC(C)C)C3)sc2c1=O (stereo not drawn)
658 s	COc1cccc(CC(=O)NC2CCN(c3cc(-c4cccs4)[nH]n3)C2)c1 (stereo not drawn)
997 s	Cc1ccc(NC(=O)Cn2cc(-c3ccccc3)c(N(C)C)n2)c(F)c1
906 s	CC(C)CC(=O)Nc1cnc(-c2ccccc2)nc1
764 s	O=C(Cc1csc2nc(-c3ccccc3)cn12)Nc1ccccc1F
847 s	CC1=C(c2ccc(C)cc2)S(=O)(=O)N=C1N1CCCN(C(=O)Cc2ccsc2)CC1
543 s	CN(C)CCCNC(=O)C1CCN(c2nc3ccc(-c4cccnc4)nc3s2)CC1
922 s	COc1ccc(CNC(=O)c2nsc(C(=O)NCCc3ccc(OC)c(OC)c3)c2N)cc1
1070 s	COc1ccc(C2(C(=O)N3CCO[C@@H](COc4ccccn4)[C@@H]3c3ccccc3)CC2)cc1
930 s	C=CC(=O)N1C/C(=C\c2ccccc2)C(=O)/C(=C/c2ccccc2)C1
1060 s	O=C(Cn1cnc2c(sc3nc(-c4ccccc4)ccc32)c1=O)NCCc1ccc(Cl)cc1
627 s	Cc1cc2nn(CC(=O)Nc3cc(F)ccc3C)c(=O)n2c(-c2ccccc2)n1
674 s	CC1CCCCN1CCCNC(=O)CCCn1c(=O)c2cccn2c2ccc(Br)cc21 (stereo not drawn)

RP-LC retention time	Compound
1310 s	O=C(CSc1cc(N2CCN(c3ccccc3F)CC2)ncn1)Nc1ccc(Cl)cc1F
630 s	O=C1NCCCn2cc(S(=O)(=O)Nc3ccccc3)cc21
892 s	CCn1cc(-c2nc(CC(=O)Nc3ccccc3)cs2)c2cccnc21
1060 s	O=C(Nc1ccccc1F)N1CCCC1c1nc(-c2cccc(Cl)c2)no1 (stereo not drawn)
746 s	Cc1ccc2nc(NC3=NCN(CCc4cccs4)CN3)nc(C)c2c1
1250 s	COc1cccc(Cn2c(=O)c3cnc(-c4ccc(C)cc4)nc3n(C)c2=O)c1
694 s	Cc1ccc(CNC(=O)Cn2cc(C(=O)N3CCCC3)c(=O)c3ccc(C)nc32)cc1
1230 s	Cc1cc(C)c(S(=O)(=O)N2CCCC2c2nc(-c3ccccc3)no2)c(C)c1 (stereo not drawn)
813 s	CCOC(=O)c1ccc(N2C=C(C(=O)N3CCCC3)S(=O)(=O)c3ccccc32)cc1
736 s	Cc1nn(CCCC(=O)NCc2ccco2)c(=O)c2nn(-c3ccccc3)c(C)c12
942 s	Cc1ccccc1-c1noc(N2CCC(C(=O)NCc3ccc4c(c3)OCO4)CC2)n1
766 s	CCn1cc(CCNC(=O)c2ccc(Br)cc2)c2cccnc21
767 s	CCSc1nnc(-c2nn(C)c3c2CN(C(=O)CCc2ccccc2)CC3)n1C
1190 s	CC1Oc2ccccc2N(Cc2nc(-c3ccc(F)c(Cl)c3)no2)C1=O (stereo not drawn)
618 s	O=C(NCc1ccccc1)N1CCCC(Cn2cnc3cccnc32)C1 (stereo not drawn)
614 s	CCCS(=O)(=O)Nc1cccc(-c2cn3ccc(C)cc3n2)c1
870 s	COc1cccc(NC(=O)N2CCC3(CC2)N=C(c2ccc(Cl)cc2)C(=O)N3)c1
781 s	CCC(=O)Nc1ccc(-n2cnc(C(=O)NC(C)c3ccc(C)cc3)c2)nc1 (stereo not drawn)
704 s	CCOC(=O)C1=C(CN2CC=C(c3ccccc3)CC2)NC(=O)NC1c1cccc(OC)c1OC (stereo not drawn)
652 s	Cc1c(C(=O)Nc2cc(=O)n(C)c(=O)n2C)cccc1[N+](=O)[O-]
872 s	CC(C)(C)c1ccc(C(=O)NC2CCN(c3cc(-c4ccccc4)[nH]n3)C2)cc1 (stereo not drawn)
622 s	O=C(C1=C(O)C(=O)N(CCCn2ccnc2)C1c1ccc(F)cc1)c1cc2ccccc2o1 (stereo not drawn)
802 s	O=C(Cc1nnc(-c2ccc3ncccc3c2)o1)Nc1cccc(C(F)(F)F)c1
978 s	Cc1nc(-c2cc(S(=O)(=O)N(Cc3ccccc3)C(C)C)c(C)s2)sc1C
695 s	CCOC(=O)CC(NC(=O)CCc1c(C)nc2ncnn2c1C)c1ccc(C)cc1 (stereo not drawn)
